Experimental data published in article PMC10615259, “The Aurora kinase B relocation blocker LXY18 triggers mitotic catastrophe selectively in malignant cells” (PLOS ONE, 2023).

What was measured:
Experiment in all cases: radiometric kinase assay (Eurofins KinaseProfiler)
Assay type in all cases: biochemical
Conditions in all cases: 2 µM LXY18; Mg/ATP; 120 min; room temperature; no pre-incubation
ABL [1] = target: T1, ABL (Homo sapiens, UniProt P00519, H396P)
T1 construct: gene ABL1; Eurofins KinaseProfiler panel kinase

ABL [2] = target: T2, ABL (Homo sapiens, UniProt P00519)
T2 construct: gene ABL1; Eurofins KinaseProfiler panel kinase

MKK3 = target: T3, MKK3 (Homo sapiens, UniProt P46734)
T3 construct: gene MAP2K3; Eurofins KinaseProfiler panel kinase
T3 sequence (P46734 1-347): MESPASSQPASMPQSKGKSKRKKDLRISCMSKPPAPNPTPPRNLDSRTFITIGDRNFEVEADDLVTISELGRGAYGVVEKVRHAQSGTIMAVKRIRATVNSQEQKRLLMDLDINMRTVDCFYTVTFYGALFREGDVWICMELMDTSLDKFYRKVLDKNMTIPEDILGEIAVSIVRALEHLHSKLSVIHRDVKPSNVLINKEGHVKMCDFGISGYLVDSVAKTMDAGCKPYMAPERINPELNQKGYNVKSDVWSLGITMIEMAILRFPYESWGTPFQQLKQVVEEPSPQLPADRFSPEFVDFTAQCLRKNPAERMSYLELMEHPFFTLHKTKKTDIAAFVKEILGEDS

COc1cc(NC(C)=O)cc(Oc2ccnc3ccc(Br)cc23)c1 [LXY18, N-(3-((6-bromoquinolin-4-yl)oxy)-5-methoxyphenyl)acetamide]
% inhibition at 2 μM (ABL [1]): MKK3, ABL, and an activating mutant ABL (H396P) | % inhibition at 2 μM (ABL [2]): The only positive hits in the kinome assay were MKK3, ABL, and an activating mutant | % inhibition at 2 μM (MKK3): The only positive hits in the kinome assay were MKK3, ABL, and an activating mutant
